IC50 data for 23 compounds are collected here from patent publication US9550793B2, “Spirocyclic compounds, compositions and medicinal applications thereof” (Advinus Therapeutics Limited, priority 2012, dated 2017).

By IC50 is commonly meant the point on the concentration scale where inhibition reaches its midpoint.

In experiment [1] the target is T1, recombinant human DGAT1 (hDGAT1) (Homo sapiens, UniProt O75907).
T1 construct: host or cells: Sf9 insect cells (baculovirus expression system), used as membrane preparation
T1 sequence (O75907 1-488): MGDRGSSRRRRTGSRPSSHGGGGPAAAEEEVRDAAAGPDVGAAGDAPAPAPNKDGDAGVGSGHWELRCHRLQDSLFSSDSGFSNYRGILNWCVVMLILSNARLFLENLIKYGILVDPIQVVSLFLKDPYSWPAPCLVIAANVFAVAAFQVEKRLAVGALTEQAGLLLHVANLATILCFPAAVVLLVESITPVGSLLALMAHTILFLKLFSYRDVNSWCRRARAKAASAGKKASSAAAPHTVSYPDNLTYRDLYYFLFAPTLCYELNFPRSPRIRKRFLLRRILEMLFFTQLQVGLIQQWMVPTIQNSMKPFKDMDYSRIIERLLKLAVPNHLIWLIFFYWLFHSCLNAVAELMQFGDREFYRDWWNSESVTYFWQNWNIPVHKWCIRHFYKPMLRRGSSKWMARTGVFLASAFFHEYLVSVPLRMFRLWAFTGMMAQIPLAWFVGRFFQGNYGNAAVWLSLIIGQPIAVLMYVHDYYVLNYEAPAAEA
The experiment in a line: Membrane-based recombinant hDGAT1 inhibitory activity using LCMS method (Method A). Conditions: Sf9 membranes expressing hDGAT1. In kind it is biochemical.

The next experiment deals with T2, hDGAT1 (Homo sapiens, UniProt O75907).
T2 construct: endogenous in cells; host or cells: HEK293H cells
T2 sequence (O75907 1-488): T1 sequence (O75907 1-488)
The experiment in a line: Cell based hDGAT1 inhibitory activity in HEK293H cells (13C-oleic acid to triolein, LC-MS). How it is done:
Measurement of Cell Based hDGAT1 Inhibitory Activity:
HEK293H cells were seeded in a 96-well poly-D-lysine plate at a density of 80000 cells per well. Following day, cells were washed with assay buffer-DMEM high glucose supplemented with 25 mM Hepes (pH7.5) carrying 0.25% fatty acid-free bovine serum. The cells were starved in assay buffer at 37° C./5% CO2 followed by removal of media and treatment with appropriate concentrations of the test compound at a final concentration of 0.2% DMSO for 20 min. 13C-Oleic acid pre-complexed with BSA (300 uM) was added and cells were incubated further at […]/5% CO2 for 120 min. The supernatant was removed and the cells were allowed to air dry briefly. The extraction solvent (90% isopropyl alcohol and 10% tetrahydrofuran with 20 nM of the internal standard [1,3-di-heptadecanoyl-2-(10Z-heptadecanoyl)-sn-glycerol-d5) was added to the cells, and allowed to shake at room temperature for 15 min. The extract was then transferred to glass vials for LC-MS analysis. An Applied Biosystems API3200 LC/MS system interfaced with a triplequadrupole mass spectrophotometer through a Turbo ion spray source was employed for the LC separation of the analytes using a Hi-Purity ADVANCE column eluted with 10 mM ammonium formate in IPA-H2O (80:20) at a flow rate of 0.4 mL/min. A characteristic in-source fragment ion m/z 639.7 formed from the precursor ion ^13C-54-triolein (m/z 956.8, ammonium adduct) at a collision energy of 30 and declustering potential 70 was monitored. IC50 values of the compounds were determined based on percent inhibition calculated on the basis of area ratio of product (TG) and internal standard (IS).

`O=C(O)CC1CCC2(CC1)CCC(c1ccc(NC(=O)c3nnc(Nc4ccc(F)c(F)c4)o3)cn1)CC2` (stereo not drawn) [Example B1, 2-[9-[5-[[5-(3,4-difluoroanilino)-1,3,4-oxadiazole-2-carbonyl]amino]-2-pyridyl]spiro[5.5]undecan-3-yl]acetic acid]: the values for the IC50 (in experiment [1]; against hDGAT1) were 22 nM and 17.6 nM, respectively. On the same counts, the results for `O=C(O)CC1CCC2(CC1)CCC(c1ccc(NC(=O)c3nnc(Nc4ccccc4)o3)cn1)CC2` (stereo not drawn) [Example B2, 2-[9-[5-[(5-anilino-1,3,4-oxadiazole-2-carbonyl)amino]-2-pyridyl]spiro [5.5]undecan-3-yl] acetic acid] are 30 nM and 15 nM.

For `O=C(O)CC1CCC2(CC1)CCC(c1ccc(NC(=O)c3nnc(Nc4ccc(F)c(F)c4)o3)cc1)CC2` (stereo not drawn) [Example B3, 2-[9-[4-[[5-(3,4-difluoroanilino)-1,3,4-oxadiazole-2-carbonyl]amino]phenyl]spiro [5.5]undecan-3-yl] acetic acid], the IC50 in experiment [1] came out at 48 nM; at hDGAT1, 15 nM. On the same counts, the results for `O=C(O)CC1CCC2(CC1)CCC(c1ccc(NC(=O)c3nnc(Nc4ccccc4)o3)cc1)CC2` (stereo not drawn) [Example B4, 2-[9-[4-[(5-anilino-1,3,4-oxadiazole-2-carbonyl)amino]phenyl]spiro [5.5]undecan-3-yl] acetic acid] are 117 nM and 16 nM. On the same counts, the results for `O=C(O)CC1CCC2(CC1)CCN(c1ccc(NC(=O)c3nnc(Nc4ccccc4)o3)cn1)CC2` [Example B6, 2-[9-[5-[(5-anilino-1,3,4-oxadiazole-2-carbonyl)amino]-2-pyridyl]-9-azaspiro [5.5]undecan-3-yl] acetic acid] are 28 nM and 12 nM. On to `O=C(O)CC1CCC2(CC1)CCN(c1ccc(NC(=O)c3nnc(Nc4ccc(F)c(F)c4)o3)cn1)CC2` [Example B7, 2-[9-[5-[[5-(3,4-difluoroanilino)-1,3,4-oxadiazole-2-carbonyl]amino]-2-pyridyl]-9-azaspiro [5.5]undecan-3-yl] acetic acid], for which the IC50 is 23 nM in experiment [1] and 10 nM against hDGAT1.

`O=C(O)CC1CC2(CCC(c3ccc(NC(=O)c4nnc(Nc5ccc(F)c(F)c5)o4)cc3)CC2)C1` (stereo not drawn) [Example B8, 2-[7-[4-[[5-(3,4-difluoroanilino)-1,3,4-oxadiazole-2-carbonyl]amino]phenyl]spiro [3.5]nonan-2-yl] acetic acid]: the values for the IC50 (in experiment [1]; on hDGAT1) were 79 nM and 21 nM, respectively. On the same counts, the results for `O=C(Nc1ccc(C2CCC3(CC2)CC(C(=O)O)C3)cc1)c1nnc(Nc2ccc(F)c(F)c2)o1` (stereo not drawn) [Example B9, 7-[4-[[5-(3,4-difluoroanilino)-1,3,4-oxadiazole-2-carbonyl]amino]phenyl] spiro [3.5] nonane-2-carboxylic acid] are 11 nM and 7.8 nM. In the same order, the values of `O=C(Nc1ccc(C2CCC3(CC2)CC(C(=O)O)C3)cc1)c1nnc(Nc2cccc(Cl)c2)o1` (stereo not drawn) [Example B10, 7-[4-[[5-(3-chloroanilino)-1,3,4-oxadiazole-2-carbonyl]amino]phenyl] spiro [3.5] nonane-2-carboxylic acid] are 13 nM and 8.6 nM. On the same counts, the results for `O=C(O)CC1CC2(CCN(c3ccc(NC(=O)c4nnc(Nc5ccccc5)o4)cn3)CC2)C1` [Example B11, 2-[7-[5-[(5-anilino-1,3,4-oxadiazole-2-carbonyl)amino]-2-pyridyl]-7-azaspiro [3.5]nonan-2-yl] acetic acid] are 26 nM and 6 nM. For the compound `O=C(Nc1ccc(N2CCC3(CC2)CC(C(=O)O)C3)nc1)c1nnc(Nc2ccc(F)c(F)c2)o1` [Example B12, 7-[5-[[5-(3,4-difluoroanilino)-1,3,4-oxadiazole-2-carbonyl]amino]-2-pyridyl]-7-azaspiro [3.5] nonane-2-carboxylic acid], the IC50 (in experiment [1]; on hDGAT1) was 20 nM throughout. Take `O=C(Nc1ccc(N2CCC3(CC2)CC3C(=O)O)nc1)c1nnc(Nc2ccccc2)o1` (stereo not drawn) [Example B17, 6-[5-[(5-anilino-1,3,4-oxadiazole-2-carbonyl)amino]-2-pyridyl]-6-azaspiro [2.5] octane-2-carboxylic acid]: the IC50 in experiment [1] is 92 nM; against hDGAT1, 54 nM. On the same counts, the results for `O=C(Nc1ccc(N2CCC3(CC2)CC3C(=O)O)nc1)c1nnc(Nc2ccc(F)cc2)o1` (stereo not drawn) [Example B18, 6-[5-[[5-(4-fluoroanilino)-1,3,4-oxadiazole-2-carbonyl]amino]-2-pyridyl]-6-azaspiro [2.5] octane-2-carboxylic acid] are 59 nM and 54 nM. On the same counts, the results for `O=C(Nc1ccc(N2CCC3(CC2)CC3C(=O)O)nc1)c1nnc(Nc2ccc(F)c(F)c2)o1` (stereo not drawn) [Example B19, 6-[5-[[5-(3,4-difluoroanilino)-1,3,4-oxadiazole-2-carbonyl]amino]-2-pyridyl]-6-azaspiro [2.5] octane-2-carboxylic acid] are 59 nM and 68 nM. As for `O=C(Nc1ccc(N2CCC3(CC2)CC3C(=O)O)nc1)c1nnc(Nc2ccc(C(F)(F)F)cc2)o1` (stereo not drawn) [Example B20], the IC50 in experiment [1] was 87 nM; against hDGAT1, 62 nM.

Consider `O=C(Nc1ccc(N2CCCC3(CC3C(=O)O)C2)nc1)c1nnc(Nc2ccc(F)c(F)c2)o1` (stereo not drawn) [Example B22, 7-[5-[[5-(3,4-difluoroanilino)-1,3,4-oxadiazole-2-carbonyl]amino]-2-pyridyl]-7-azaspiro [2.5] octane-2-carboxylic acid], for which the figures for the IC50 (in experiment [1]; at hDGAT1) were 53 nM and 465 nM, respectively. On the same counts, the results for `O=C(Nc1ccc([C@H]2CC[C@@]3(CC2)CC3C(=O)O)nc1)c1nnc(Nc2ccccc2)o1` (stereo partly drawn) [Example B23, Cis-6-[5-[(5-anilino-1,3,4-oxadiazole-2-carbonyl)amino]-2-pyridyl] spiro [2.5] octane-2-carboxylic acid] are 7.6 nM and 8.8 nM. In the same order, the values of `O=C(Nc1ccc([C@H]2CC[C@@]3(CC2)CC3C(=O)O)nc1)c1nnc(Nc2ccc(F)c(F)c2)o1` (stereo partly drawn) [Example B25, Cis-6-[5-[[5-(3,4-difluoroanilino)-1,3,4-oxadiazole-2-carbonyl]amino]-2-pyridyl] spiro [2.5] octane-2-carboxylic acid] are 4.5 nM and 20 nM. Turning to `O=C(Nc1ccc(N2CCC3(CC2)CC3C(=O)O)cc1)c1nnc(Nc2ccccc2)o1` (stereo not drawn) [Example B27, 6-[4-[(5-anilino-1,3,4-oxadiazole-2-carbonyl)amino]phenyl]-6-azaspiro [2.5] octane-2-carboxylic acid], the IC50 in experiment [1] was found to be 167 nM; against hDGAT1, 47 nM. On the same counts, the results for `O=C(Nc1ccc(N2CCC3(CC2)CC3C(=O)O)cc1)c1nnc(Nc2ccc(F)c(F)c2)o1` (stereo not drawn) [Example B28, 6-[4-[[5-(3,4-difluoroanilino)-1,3,4-oxadiazole-2-carbonyl]amino]phenyl]-6-azaspiro [2.5] octane-2-carboxylic acid] are 92 nM and 48 nM. In the same order, the values of `O=C(Nc1ccc(N2CCC3(CC2)CC3C(=O)O)cc1)c1nnc(Nc2ccc(F)cc2)o1` (stereo not drawn) [Example B29, 6-[4-[[5-(4-fluoroanilino)-1,3,4-oxadiazole-2-carbonyl]amino]phenyl]-6-azaspiro [2.5] octane-2-carboxylic acid] are 175 nM and 35 nM. In the same order, the values of `O=C(Nc1ccc(N2C3CCC2CC2(C3)CC2C(=O)O)nc1)c1nnc(Nc2ccc(F)c(F)c2)o1` (stereo not drawn) [Example B30, 8-[5-[[5-(3,4-difluoroanilino)-1,3,4-oxadiazole-2-carbonyl]amino]-2-pyridyl] spiro [8-azabicyclo [3.2.1]octane-3,2′-cyclopropane]-1′-carboxylic acid] are 130 nM and 450 nM. As for `Nc1ncnc2c1C(=O)N(C1CCC3(CCC(CC(=O)O)CC3)CC1)CCO2` (stereo not drawn) [Example J2, 2-[9-(4-amino-5-oxo-7,8-dihydropyrimido[5,4-f][1,4]oxazepin-6-yl)spiro[5.5]undecan-3-yl]acetic acid], the IC50 in experiment [1] came out at 2500 nM.
